Assay results as given in ChEMBL document CHEMBL4043265, “Discovery of imidazo[1,2-a]-, [1,2,4]triazolo[4,3-a]-, and [1,2,4]triazolo[1,5-a]pyridine-8-carboxamide negative allosteric modulators of metabotropic glutamate receptor subtype 5” (Bioorg Med Chem Lett, 2017).
Activity calls are given as the source filed them. The rule behind the calls is not given here.

What was measured:
[1] = biological target: Metabotropic glutamate receptor 5 (Rattus norvegicus, UniProt P31424); assay: Negative allosteric modulation of rat mGlu5 receptor expressed in HEK293 cells assessed as inhibition of glutamate induced-calcium mobilization preincubated for 2.3 mins followed by glutamate addition measured after 1.7 mins by Fluo-4 AM dye based fluorescence assay; type: functional, cell-based
[2] = biological target: Metabotropic glutamate receptor 5 (Rattus norvegicus) (UniProt P31424); assay: Negative allosteric modulation of rat mGlu5 receptor expressed in HEK293 cells assessed as inhibition of glutamate induced-calcium mobilization at 30 uM preincubated for 2.3 mins followed by glutamate addition measured after 1.7 mins by Fluo-4 AM dye based fluorescence assay relative to glutamate; type: functional, cell-based
Plasma [3] = settings: rat, 4 h, 5 µM
Plasma [4] = settings: human, 4 h, 5 µM
Cytochrome P450 2C9 = Cytochrome P450 2C9 (Homo sapiens, UniProt P11712)
Cytochrome P450 1A2 = biological target: T1, Cytochrome P450 1A2 (Homo sapiens, UniProt P05177)
T1 sequence (P05177 whole entry): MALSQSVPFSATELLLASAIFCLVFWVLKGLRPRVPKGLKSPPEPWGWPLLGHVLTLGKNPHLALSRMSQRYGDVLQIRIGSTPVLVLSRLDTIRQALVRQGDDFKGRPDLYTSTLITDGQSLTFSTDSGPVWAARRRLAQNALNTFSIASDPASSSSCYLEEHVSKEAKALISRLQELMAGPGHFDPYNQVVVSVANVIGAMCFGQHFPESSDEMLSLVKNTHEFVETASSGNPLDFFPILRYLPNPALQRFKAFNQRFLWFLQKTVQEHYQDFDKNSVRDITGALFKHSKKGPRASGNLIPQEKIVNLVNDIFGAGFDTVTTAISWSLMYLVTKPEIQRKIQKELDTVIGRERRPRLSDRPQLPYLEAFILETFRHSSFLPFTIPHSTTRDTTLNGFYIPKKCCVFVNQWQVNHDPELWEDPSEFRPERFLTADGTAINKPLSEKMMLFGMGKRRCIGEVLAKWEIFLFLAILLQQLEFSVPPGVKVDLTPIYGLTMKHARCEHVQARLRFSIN

Cytochrome P450 2D6 = Cytochrome P450 2D6 (Homo sapiens, UniProt P10635)
Cytochrome P450 3A4 = Cytochrome P450 3A4 (Homo sapiens, UniProt P08684)
[5] = AUC in rat at 10 mg/kg, po; type: ADME, organism-based; settings: in vivo
[6] = Plasma clearance in rat at 1 mg/kg, iv; type: ADME, organism-based
[7] = Apparent permeability of the compound across apical side to basolateral side in MDCK cells expressing MDR1 measured every 30 mins for 2 hrs; type: ADME, cell-based, Canis lupus familiaris; settings: dog
[8] = Oral bioavailability in rat at 10 mg/kg; type: ADME, organism-based; settings: in vivo
[9] = biological target: Platelet-activating factor receptor (Homo sapiens) (UniProt P25105); assay: Displacement of [3H]PAF from human PAF at 10 uM after 3 hrs by scintillation counting method relative to control
[10] = Half life in rat at 1 mg/kg, iv; type: ADME, organism-based; settings: in vivo
Brain = assay: Fraction unbound in rat brain homogenates at 5 uM after 6 hrs by equilibrium dialysis method; type: ADME, tissue-based; settings: brain homogenate
[11] = Cmax in rat at 10 mg/kg, po; type: ADME, organism-based; parameters: dose 10 mg/kg, route oral; settings: in vivo
Mus musculus [12] = assay: Anxiolytic-like activity in ip dosed Harlan CD-1 mouse marble burying model of OCD assessed as suppression of marble burying activity administered 15 mins prior to test measured over 30 mins; type: functional; settings: Harlan CD-1, ip, read-out: MED
[13] = Apparent permeability of the compound across basolateral side to apical side in MDCK cells expressing MDR1 measured every 30 mins for 2 hrs; type: ADME, cell-based, Canis lupus familiaris; settings: dog
[14] = Volume of distribution at steady state in rat at 1 mg/kg, iv; type: ADME, organism-based; settings: in vivo, read-out: Vdss
[15] = biological target: Sodium-dependent dopamine transporter (Homo sapiens, UniProt Q01959); type: ADME, cell-based
[16] = Tmax in rat at 10 mg/kg, po; type: ADME, organism-based; settings: in vivo
[17] = Ratio of unbound brain to plasma concentration in rat at 3 mg/kg, po; type: ADME, organism-based
[18] = Brain to plasma partition coefficient, Kp of the compound in rat at 3 mg/kg, po; type: ADME, organism-based
[19] = Mean residence time in rat at 1 mg/kg, iv; type: ADME, organism-based; settings: in vivo
[20] = biological target: T2, DAT (sodium-dependent dopamine transporter) (Homo sapiens, UniProt Q01959); assay: in vitro
[21] = biological target: T2, DAT (sodium-dependent dopamine transporter); assay: Inhibition of full-length recombinant human DAT expressed in CHOK1 cells assessed as reduction in [3H]dopamine uptake at 10 uM pretreated for 20 mins followed by [3H]dopamine addition measured after 10 mins by scintillation counting method relative to control; type: cell-based; settings: CHO-K1 cells expressing full-length recombinant human DAT, probe [3H]dopamine
Mus musculus [22] = assay: Anxiolytic-like activity in Harlan CD-1 mouse marble burying model of OCD assessed as suppression of marble burying activity at 10 mg/kg, ip administered 15 mins prior to test measured over 30 mins; type: functional, organism-based
[23] = CHO-K1 cells expressing recombinant human DAT, probe [125I]RTI-55

T2 sequence (Q01959 whole entry): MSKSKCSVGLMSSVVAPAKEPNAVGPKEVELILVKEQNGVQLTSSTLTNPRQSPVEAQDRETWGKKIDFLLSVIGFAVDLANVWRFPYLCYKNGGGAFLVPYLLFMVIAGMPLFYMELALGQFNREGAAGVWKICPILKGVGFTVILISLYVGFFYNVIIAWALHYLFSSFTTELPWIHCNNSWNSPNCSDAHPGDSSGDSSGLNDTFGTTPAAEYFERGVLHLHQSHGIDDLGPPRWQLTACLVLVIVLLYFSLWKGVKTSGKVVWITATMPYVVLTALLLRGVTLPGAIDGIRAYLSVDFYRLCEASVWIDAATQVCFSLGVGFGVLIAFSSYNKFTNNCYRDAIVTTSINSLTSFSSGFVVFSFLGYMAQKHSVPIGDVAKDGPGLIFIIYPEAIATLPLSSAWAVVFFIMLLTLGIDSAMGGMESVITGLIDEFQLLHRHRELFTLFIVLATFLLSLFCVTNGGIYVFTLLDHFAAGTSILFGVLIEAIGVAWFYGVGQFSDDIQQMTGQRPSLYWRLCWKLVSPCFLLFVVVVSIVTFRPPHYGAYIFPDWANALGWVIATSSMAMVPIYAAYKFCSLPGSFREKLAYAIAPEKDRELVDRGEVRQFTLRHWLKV
Sodium-dependent dopamine transporter, sequence (Q01959 whole entry): as above
Cytochrome P450 2D6, sequence (P10635 whole entry): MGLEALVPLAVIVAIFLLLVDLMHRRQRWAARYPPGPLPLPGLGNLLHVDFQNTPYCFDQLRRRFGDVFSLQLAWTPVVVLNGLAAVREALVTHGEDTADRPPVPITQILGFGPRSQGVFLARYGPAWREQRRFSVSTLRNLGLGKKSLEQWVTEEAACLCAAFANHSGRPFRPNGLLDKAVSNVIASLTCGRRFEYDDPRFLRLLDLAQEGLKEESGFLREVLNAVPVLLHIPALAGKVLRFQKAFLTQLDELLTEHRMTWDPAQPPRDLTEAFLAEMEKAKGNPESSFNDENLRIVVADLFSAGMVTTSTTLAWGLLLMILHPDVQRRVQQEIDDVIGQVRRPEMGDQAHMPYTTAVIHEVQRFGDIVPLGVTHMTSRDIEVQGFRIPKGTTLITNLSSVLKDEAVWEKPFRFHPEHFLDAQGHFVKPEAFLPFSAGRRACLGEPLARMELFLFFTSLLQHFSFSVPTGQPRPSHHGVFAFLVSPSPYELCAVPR
Metabotropic glutamate receptor 5, sequence (P31424 whole entry): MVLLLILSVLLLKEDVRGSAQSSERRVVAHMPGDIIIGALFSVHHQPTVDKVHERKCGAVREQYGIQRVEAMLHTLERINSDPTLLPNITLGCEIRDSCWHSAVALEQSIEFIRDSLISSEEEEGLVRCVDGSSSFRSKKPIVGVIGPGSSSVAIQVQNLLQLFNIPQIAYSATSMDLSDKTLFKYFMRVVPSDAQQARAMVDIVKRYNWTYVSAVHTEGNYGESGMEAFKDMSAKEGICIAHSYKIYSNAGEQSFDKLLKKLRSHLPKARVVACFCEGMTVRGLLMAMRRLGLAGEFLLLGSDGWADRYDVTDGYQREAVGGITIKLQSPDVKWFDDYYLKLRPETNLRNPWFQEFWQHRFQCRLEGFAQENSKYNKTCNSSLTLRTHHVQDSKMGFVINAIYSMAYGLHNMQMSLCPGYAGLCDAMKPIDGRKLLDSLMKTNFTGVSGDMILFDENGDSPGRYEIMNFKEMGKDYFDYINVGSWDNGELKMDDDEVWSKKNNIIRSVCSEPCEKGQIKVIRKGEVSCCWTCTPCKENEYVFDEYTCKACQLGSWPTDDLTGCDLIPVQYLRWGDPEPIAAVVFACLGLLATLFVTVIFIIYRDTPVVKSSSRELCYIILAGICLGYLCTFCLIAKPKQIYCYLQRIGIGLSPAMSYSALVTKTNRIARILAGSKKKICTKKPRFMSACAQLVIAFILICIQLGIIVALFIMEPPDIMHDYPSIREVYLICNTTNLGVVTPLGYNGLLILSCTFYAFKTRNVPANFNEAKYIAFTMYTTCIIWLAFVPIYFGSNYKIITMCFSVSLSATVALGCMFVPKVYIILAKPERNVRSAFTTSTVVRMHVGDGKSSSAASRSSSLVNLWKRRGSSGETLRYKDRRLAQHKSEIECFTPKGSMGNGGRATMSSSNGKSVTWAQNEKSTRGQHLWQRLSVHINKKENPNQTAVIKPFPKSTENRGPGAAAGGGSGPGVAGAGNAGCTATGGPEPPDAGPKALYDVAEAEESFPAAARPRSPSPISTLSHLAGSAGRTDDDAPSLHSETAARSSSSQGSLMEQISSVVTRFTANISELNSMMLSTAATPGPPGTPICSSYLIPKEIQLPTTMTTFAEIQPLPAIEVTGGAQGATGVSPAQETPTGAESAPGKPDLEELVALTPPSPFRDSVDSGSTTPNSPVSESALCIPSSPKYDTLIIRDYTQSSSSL
Cytochrome P450 2C9, sequence (P11712 whole entry): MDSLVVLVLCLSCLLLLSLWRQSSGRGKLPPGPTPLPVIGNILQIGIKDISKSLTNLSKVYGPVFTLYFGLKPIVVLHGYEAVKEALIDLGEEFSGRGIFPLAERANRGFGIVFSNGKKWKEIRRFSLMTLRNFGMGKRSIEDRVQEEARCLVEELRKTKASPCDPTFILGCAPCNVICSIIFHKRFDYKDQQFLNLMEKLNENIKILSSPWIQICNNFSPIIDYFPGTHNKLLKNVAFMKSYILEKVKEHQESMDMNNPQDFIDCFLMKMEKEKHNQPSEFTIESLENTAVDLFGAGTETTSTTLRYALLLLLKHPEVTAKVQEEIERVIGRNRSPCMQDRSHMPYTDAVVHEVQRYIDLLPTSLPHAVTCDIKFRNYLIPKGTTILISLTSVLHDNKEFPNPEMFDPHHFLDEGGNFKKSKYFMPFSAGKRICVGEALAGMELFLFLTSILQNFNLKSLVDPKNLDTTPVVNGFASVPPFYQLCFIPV
Metabotropic glutamate receptor 5 (Rattus norvegicus), sequence (P31424 21-1203 limits assumed): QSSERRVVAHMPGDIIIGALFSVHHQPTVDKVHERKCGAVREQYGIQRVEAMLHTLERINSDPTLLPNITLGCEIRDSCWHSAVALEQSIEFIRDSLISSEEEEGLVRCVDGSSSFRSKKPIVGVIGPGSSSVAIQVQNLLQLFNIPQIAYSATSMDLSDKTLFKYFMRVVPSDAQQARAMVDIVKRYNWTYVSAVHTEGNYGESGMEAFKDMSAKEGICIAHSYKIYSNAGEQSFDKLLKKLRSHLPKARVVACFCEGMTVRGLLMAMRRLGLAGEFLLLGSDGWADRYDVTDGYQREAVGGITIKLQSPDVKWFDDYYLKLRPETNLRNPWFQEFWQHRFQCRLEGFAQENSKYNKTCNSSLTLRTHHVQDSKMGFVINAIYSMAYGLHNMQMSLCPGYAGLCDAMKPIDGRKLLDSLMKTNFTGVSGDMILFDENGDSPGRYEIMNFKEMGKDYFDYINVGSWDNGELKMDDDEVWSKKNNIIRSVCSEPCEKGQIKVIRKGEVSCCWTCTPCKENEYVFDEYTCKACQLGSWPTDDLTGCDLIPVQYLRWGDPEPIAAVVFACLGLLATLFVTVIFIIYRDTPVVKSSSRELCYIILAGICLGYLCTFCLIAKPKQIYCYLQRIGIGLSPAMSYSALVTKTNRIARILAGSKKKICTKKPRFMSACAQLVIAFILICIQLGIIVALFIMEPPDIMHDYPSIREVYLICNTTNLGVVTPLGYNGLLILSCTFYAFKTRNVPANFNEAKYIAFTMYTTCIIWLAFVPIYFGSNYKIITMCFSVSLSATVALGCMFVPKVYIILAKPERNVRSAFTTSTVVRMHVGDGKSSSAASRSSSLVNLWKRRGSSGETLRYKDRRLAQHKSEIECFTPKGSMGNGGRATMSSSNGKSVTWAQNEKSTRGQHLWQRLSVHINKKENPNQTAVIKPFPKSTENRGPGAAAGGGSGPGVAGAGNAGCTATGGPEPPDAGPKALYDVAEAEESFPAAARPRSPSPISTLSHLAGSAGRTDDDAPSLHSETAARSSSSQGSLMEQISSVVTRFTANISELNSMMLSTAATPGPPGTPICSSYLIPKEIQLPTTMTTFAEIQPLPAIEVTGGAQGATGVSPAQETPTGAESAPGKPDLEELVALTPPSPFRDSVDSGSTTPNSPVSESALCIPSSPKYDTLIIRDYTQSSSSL
Cytochrome P450 3A4, sequence (P08684 whole entry): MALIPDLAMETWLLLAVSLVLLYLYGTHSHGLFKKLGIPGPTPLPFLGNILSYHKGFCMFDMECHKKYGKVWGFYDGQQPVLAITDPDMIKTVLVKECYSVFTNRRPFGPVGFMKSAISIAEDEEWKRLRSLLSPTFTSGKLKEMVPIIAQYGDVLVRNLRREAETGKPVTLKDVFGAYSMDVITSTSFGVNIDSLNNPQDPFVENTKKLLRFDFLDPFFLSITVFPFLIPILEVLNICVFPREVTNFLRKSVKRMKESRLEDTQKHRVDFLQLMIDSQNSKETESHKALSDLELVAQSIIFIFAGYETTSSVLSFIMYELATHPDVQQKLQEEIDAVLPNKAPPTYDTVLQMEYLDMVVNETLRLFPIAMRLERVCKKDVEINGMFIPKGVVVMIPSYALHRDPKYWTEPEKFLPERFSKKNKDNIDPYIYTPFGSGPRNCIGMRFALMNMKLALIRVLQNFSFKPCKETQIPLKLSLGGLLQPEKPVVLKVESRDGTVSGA
Platelet-activating factor receptor (Homo sapiens), sequence (P25105 whole entry): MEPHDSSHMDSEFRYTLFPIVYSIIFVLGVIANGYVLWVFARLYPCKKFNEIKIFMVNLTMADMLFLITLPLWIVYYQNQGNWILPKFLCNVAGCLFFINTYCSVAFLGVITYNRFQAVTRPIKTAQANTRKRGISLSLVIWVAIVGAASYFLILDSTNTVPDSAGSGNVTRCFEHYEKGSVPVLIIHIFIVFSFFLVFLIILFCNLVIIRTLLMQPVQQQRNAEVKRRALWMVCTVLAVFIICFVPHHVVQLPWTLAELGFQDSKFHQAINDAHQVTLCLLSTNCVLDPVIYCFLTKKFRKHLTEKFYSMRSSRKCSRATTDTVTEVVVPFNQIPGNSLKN

Row | SMILES | IC50 [1] [µM] | %max [2] [%] | Fu (Plasma [3]) | Fu (Plasma [4]) | IC50 (Cytochrome P450 2C9) [µM] | IC50 (Cytochrome P450 1A2) [µM] | IC50 (Cytochrome P450 2D6) [µM] | IC50 (Cytochrome P450 3A4) [µM] | further results
1 | O=C(Nc1ccc(F)cn1)c1cc(Oc2cc(F)cnc2F)cn2ncnc12 | 0.117 | 2.2 |  |  |  |  |  |  | 
2 | O=C(Nc1ccc(F)cn1)c1cc(Oc2cncnc2)cn2ncnc12 | 0.074 | 1.5 | 0.168 | 0.313 | > 30 | 9.9 | > 30 | > 30 | inhibition at 10 min, 10 µM [21]: 42%; IC50 [15]: > 10 µM; inhibition at 3 h, 10 µM [20, 23]: 60%
3 | O=C(Nc1ccc(F)cn1)c1cc(Oc2cncc(OC(F)F)c2)cn2ncnc12 | 0.129 | 1.7 |  |  |  |  |  |  | 
4 | O=C(Nc1ccc(F)cn1)c1cc(Oc2cncnc2)cn2cnnc12 | 0.324 | 1.6 |  |  |  |  |  |  | 
5 | Cc1nnc2c(C(=O)Nc3ccc(F)cn3)cc(Oc3cncc(F)c3)cn12 | 0.372 | 2.7 |  |  |  |  |  |  | 
6 | O=C(Nc1ccc(F)cn1)c1cc(Oc2cncc(Cl)c2)cn2ncnc12 | 0.089 | 1.1 |  |  |  |  |  |  | 
7 | Cc1cc(Oc2cncnc2)cc(C(=O)Nc2ccc(F)cn2)n1 |  |  |  |  |  |  |  |  | Activity (Mus musculus [22]): Active
8 | COc1ccc(NC(=O)c2cc(Oc3cncc(F)c3)cn3ccnc23)nc1 | 0.055 | 1.6 | 0.014 | 0.028 | 5.7 | 1.1 | > 30 | 2 | 
9 | Cc1ccc(NC(=O)c2cc(Oc3cncc(F)c3)cn3ccnc23)nc1 | 0.074 | 1.4 | 0.005 | 0.016 | 6.9 | 0.8 | > 30 | 1.9 | 
10 | O=C(Nc1ccc(F)cn1)c1cc(Oc2cnc(F)c(F)c2)cn2ncnc12 | 0.056 | 1.6 | 0.023 | 0.031 | > 30 | > 30 | > 30 | 23 | IC50 [15]: 2.87 µM; inhibition at 3 h, 10 µM [20]: 67%
11 | Cc1nc2c(C(=O)Nc3ccc(F)cn3)cc(Oc3cncc(F)c3)cn2n1 | 1.41 | 3.3 |  |  |  |  |  |  | 

More lines, in order of falling IC50 [1], values ahead:

Row | IC50 [1] [µM] | %max [2] [%] | Fu (Plasma [3]) | Fu (Plasma [4]) | IC50 (Cytochrome P450 2C9) [µM] | IC50 (Cytochrome P450 1A2) [µM] | IC50 (Cytochrome P450 2D6) [µM] | IC50 (Cytochrome P450 3A4) [µM] | SMILES | further results
12 | 0.041 | 2 | 0.066 | 0.067 | > 30 | 4.1 | > 30 | > 30 | O=C(Nc1ccc(F)cn1)c1cc(Oc2cncc(F)c2F)cn2ncnc12 | inhibition at 3 h, 10 µM [20, 23]: 87%
13 | 0.038 | 1.5 | 0.023 | 0.026 | 1.6 | 0.6 | 24.8 | 2.3 | O=C(Nc1cccc(F)n1)c1cc(Oc2cncc(F)c2)cn2ccnc12 | 
14 | 0.027 | 2.3 | 0.051 | 0.1 | > 30 | 4.3 | > 30 | 17.8 | O=C(Nc1ccc(F)cn1)c1cc(Oc2cncc(F)c2)cn2cnnc12 | AUC [5]: 5.67 µM·h; clearance [6]: 14 mL/min/kg; Papp [7]: 4.7 ×10⁻⁶ cm/s; bioavailability [8]: 17%; half-life [10]: 1.32 h; Fu (Brain): 0.065; Cmax [11]: 573 nM; minimal effective dose (Mus musculus [12]): 3 mg/kg; Papp [13]: 11.1 ×10⁻⁶ cm/s; Vd [14]: 1.6 L/kg; Tmax [16]: 3 h; K(p,uu,brain) [17]: 2.1; Kp [18]: 1.7; MRT [19]: 1.97 h; inhibition at 3 h, 10 µM [20, 23]: 91%
15 | 0.02 | 1.6 | 0.028 | 0.02 | 5.7 | 0.8 | > 30 | 3.9 | O=C(Nc1ccc(F)cn1)c1cc(Oc2cncc(F)c2)cn2ccnc12 | 
16 | 0.02 | 1.5 | 0.066 | 0.071 | > 30 | 15.1 | > 30 | > 30 | O=C(Nc1ccc(F)cn1)c1cc(Oc2cncc(F)c2)cn2ncnc12 | AUC [5]: 8.3 µM·h; clearance [6]: 11 mL/min/kg; Papp [7]: 10 ×10⁻⁶ cm/s; bioavailability [8]: 20%; inhibition [9]: 55%; half-life [10]: 1.35 h; Fu (Brain): 0.028; Cmax [11]: 673 nM; minimal effective dose (Mus musculus [12]): 3 mg/kg; Papp [13]: 13.1 ×10⁻⁶ cm/s; Vd [14]: 1.6 L/kg; IC50 [15]: 0.73 µM; Tmax [16]: 3 h; K(p,uu,brain) [17]: 0.6; Kp [18]: 1.4; MRT [19]: 2.38 h; inhibition at 3 h, 10 µM [20, 23]: 89%
